Assay results from patent publication US20080057086A1, “COLON-TARGETED ORAL FORMULATIONS OF CYTIDINE ANALOGS” (PHARMION CORPORATION, priority 2006, published 2008).
Read-outs that look alike come from different tables or passages of the source.

Assays:
[1] = test system: human intestinal tissue (jejunum, ileum, colon); assay: Permeability in viable human intestinal strips (USSING chambers), mucosal to serosal; type: in vitro ADME
Text: This model allows evaluation of the absorption potential of drugs and differences in drug absorption across the human jejunum, ileum, and colon and is based on Ungell et al. “Membrane Transport of Drugs in Different Regions of the Intestinal Tract of the Rat”, J. Pharm. Sci. 87:360-366, (1998) and Nejdfors et al. “Mucosal in vitro Permeability in the Intestinal Tract of the Pig, the Rat, and Man: Species and Region Related Differences”, Scand. J. Gastroenterol. 35:501-507, (2000). Permeation experiments were performed for 5-azacytidine in the jejunal, ileal, and colonic tissues originating from the same human donor. Post-mortem human whole intestine was obtained from the International Institute for the Advancement of Medicine (IIAM). Tissues were used within 24 hours of the organ's removal. Tissues were maintained in cold transport media before being stripped. The segments were cut along the mesenteric border, the underlying musculature was stripped off, and the epithelium was rinsed with ice cold normal saline. The stripped tissues were mounted within the vertical USSING chambers (Harvard Apparatus, Holliston, Mass.). In these studies, 5-azacytidine permeability was measured in both absolute rate and relative to atenolol (internal control). In all cases the net apparent permeability was assessed in the mucosal to serosal direction only.

[2] = Clinical study of single oral doses of 5-azacytidine (oral formulation of Example 3): PK, bioavailability, safety; type: in vivo, human; settings: for bioavailability: oral, SC reference dose = 135 mg, AUC = 777 ng · h/mL, read-out: F, percent bioavailability compared with historical SC azacitidine data
Protocol: The study was a multicenter, open-label, single treatment study. Patients were treated with escalating doses, in 20 mg increments, up to 200 mg. The study assessed the safety and tolerability of escalating doses, provided pilot information on the oral bioavailability of the study drug, and provided information on the single dose pharmacokinetics of the study drug after oral administration.
Multicenter, open-label, single-treatment, escalating-dose PK study. […] Single subject cohorts were used for each dose escalation. Subsequent subjects were to be treated at escalating doses, up to 200 mg, in 20 mg increments. Dose escalation was to continue until 1 of the following conditions was reached: • a.
If no safety concerns were identified and no Grade 3 or 4 AEs occurred in these subjects, dose escalation was to continue. […] Serial blood samples for plasma PK analyses were drawn before, and at the following time points after, dosing: 0.5, 1, 1.5, 2, 2.5, 3, 3.5, 4, 4.5, 5, 5.5, 6, 6.5, 7, 8 hours, and 12 hours (if possible). […] PK parameters calculated from plasma concentrations included (but were not limited to) Cmax, Tmax, t1/2, and AUC(0−∞).

[3] = 1 subject, 60 mg single oral dose
[4] = 1 subject, 80 mg single oral dose
[5] = all 4 subjects, 60 or 80 mg single oral dose
[6] = human, plasma, po, 60 mg, Subject 101, 60 mg single oral dose (Example 3 tablets)
[7] = human, plasma, po, 60 mg, Subject 101, 60 mg single oral dose (Example 3 tablets), read-out: Plasma concentration
[8] = human, plasma, po, 80 mg, Mean (n = 3), 80 mg single oral dose (Example 3 tablets)
[9] = human, plasma, po, 80 mg, Mean of 80 mg dose group (n=3), single oral dose (Example 3 tablets), read-out: Mean plasma concentration
[10] = human, plasma, po, 80 mg, Subject 102, 80 mg single oral dose (Example 3 tablets)
[11] = human, plasma, po, 80 mg, Subject 102, 80 mg single oral dose (Example 3 tablets), read-out: Plasma concentration
[12] = human, plasma, po, 80 mg, Subject 201, 80 mg single oral dose (Example 3 tablets)
[13] = human, plasma, po, 80 mg, Subject 201, 80 mg single oral dose (Example 3 tablets), read-out: Plasma concentration
[14] = human, plasma, po, 80 mg, Subject 202, 80 mg single oral dose (Example 3 tablets)
[15] = human, plasma, po, 80 mg, Subject 202, 80 mg single oral dose (Example 3 tablets), read-out: Plasma concentration

Nc1ncn([C@@H]2O[C@H](CO)[C@@H](O)[C@H]2O)c(=O)n1 [5-azacytidine, 4-amino-1-β-D-ribofuranosyl-1,3,5-triazin-2(1H)-one]
Absolute mucosal to serosal permeability by intestinal region ([1]; colon relative to jejunum and ileum, multiple donors (FIG. 1)): greatest in the colon
Effect of enzymatic inhibitors on absolute permeability ([1]; with ketoconazole and THU, increase maximal in jejunum and ileum, relatively small in colon): increased the absolute permeability in all GI tract regions
Plasma samples with quantifiable 5-azacytidine [2, 3]: 2 samples
Tolerability [2, 3]: well tolerated
Consecutive plasma samples with detectable 5-azacytidine [2, 4]: 4 consecutive samples
Tolerability [2, 4]: well tolerated
Mean plasma concentration ([2]; Mean of 80 mg dose group (n=3), single oral dose (Example 3 tablets), 4.0 h): BLQ
Mean plasma concentration ([2]; Mean of 80 mg dose group (n=3), single oral dose (Example 3 tablets), 4.5 h): BLQ
Mean plasma concentration ([2]; Mean of 80 mg dose group (n=3), single oral dose (Example 3 tablets), 5.0 h): BLQ
Plasma concentration ([2]; Subject 101, 60 mg single oral dose (Example 3 tablets), 0.5 h): BLQ
Plasma concentration ([2]; Subject 101, 60 mg single oral dose (Example 3 tablets), 4.5 h): BLQ
Plasma concentration ([2]; Subject 101, 60 mg single oral dose (Example 3 tablets), 5.0 h): BLQ
Plasma concentration ([2]; Subject 102, 80 mg single oral dose (Example 3 tablets), 0.5 h): BLQ
Plasma concentration ([2]; Subject 102, 80 mg single oral dose (Example 3 tablets), 3.5 h): BLQ
Plasma concentration ([2]; Subject 102, 80 mg single oral dose (Example 3 tablets), 4.0 h): BLQ
Plasma concentration ([2]; Subject 102, 80 mg single oral dose (Example 3 tablets), 4.5 h): BLQ
Plasma concentration ([2]; Subject 102, 80 mg single oral dose (Example 3 tablets), 5.0 h): BLQ
Plasma concentration ([2]; Subject 201, 80 mg single oral dose (Example 3 tablets), 0.5 h): BLQ
Plasma concentration ([2]; Subject 201, 80 mg single oral dose (Example 3 tablets), 5.0 h): BLQ
Plasma concentration ([2]; Subject 202, 80 mg single oral dose (Example 3 tablets), 4.0 h): BLQ
Plasma concentration ([2]; Subject 202, 80 mg single oral dose (Example 3 tablets), 4.5 h): BLQ
Plasma concentration ([2]; Subject 202, 80 mg single oral dose (Example 3 tablets), 5.0 h): BLQ
Grade of AEs possibly related to study drug [2, 5]: Grade 2
Study-drug-related SAEs [2, 5]: No study-drug-related SAEs
bioavailability ([2]; human, plasma, 60 mg, Subject 101, 60 mg single oral dose): 6.7%
bioavailability ([2]; human, plasma, 80 mg, Mean (n = 3), 80 mg single oral dose): 18%
bioavailability ([2]; human, plasma, 80 mg, Subject 102, 80 mg single oral dose): 6.3%
bioavailability ([2]; human, plasma, 80 mg, Subject 201, 80 mg single oral dose): 24%
bioavailability ([2]; human, plasma, 80 mg, Subject 202, 80 mg single oral dose): 22%
AUC(0-inf) [2, 6]: 22.6 ng·h/mL
Cmax [2, 6]: 15.8 ng/mL
Tmax [2, 6]: 3 h
concentration at 0 h [2, 7]: 0 ng/mL
concentration at 1 h [2, 7]: 3.72 ng/mL
concentration at 1.5 h [2, 7]: 4.56 ng/mL
concentration at 2 h [2, 7]: 3.75 ng/mL
concentration at 3 h [2, 7]: 15.8 ng/mL
concentration at 3.5 h ([2]; human, plasma, po, 60 mg, Subject 101, 60 mg single oral dose (Example 3 tablets), 3.5 h, read-out: Plasma concentration): 4.27 ng/mL
concentration at 4 h ([2]; human, plasma, po, 60 mg, Subject 101, 60 mg single oral dose (Example 3 tablets), 4.0 h): 1.55 ng/mL
AUC(0-inf) [2, 8]: 81.5 ng·h/mL
Cmax [2, 8]: 53.2 ng/mL
Tmax [2, 8]: 1.5 h
half-life [2, 8]: 0.361 h
concentration at 0 h [2, 9]: 0 ng/mL
concentration at 0.5 h ([2]; human, plasma, po, 80 mg, Mean of 80 mg dose group (n=3), single oral dose (Example 3 tablets), 0.5 h, read-out: Mean plasma concentration): 1.49 ng/mL
concentration at 1 h [2, 9]: 46.6 ng/mL
concentration at 1.5 h [2, 9]: 53.2 ng/mL
concentration at 2 h [2, 9]: 36.9 ng/mL
concentration at 2.5 h [2, 9]: 17.5 ng/mL
concentration at 3 h [2, 9]: 6.3 ng/mL
concentration at 3.5 h ([2]; human, plasma, po, 80 mg, Mean of 80 mg dose group (n=3), single oral dose (Example 3 tablets), 3.5 h, read-out: Mean plasma concentration): 2.57 ng/mL
AUC(0-inf) [2, 10]: 28.6 ng·h/mL
Cmax [2, 10]: 34.3 ng/mL
Tmax [2, 10]: 1.5 h
half-life [2, 10]: 0.336 h
concentration at 0 h [2, 11]: 0 ng/mL
concentration at 1 h [2, 11]: 9.25 ng/mL
concentration at 1.5 h [2, 11]: 34.3 ng/mL
concentration at 2 h [2, 11]: 11 ng/mL
concentration at 2.5 h [2, 11]: 3.61 ng/mL
concentration at 3 h [2, 11]: 1.4 ng/mL
AUC(0-inf) [2, 12]: 111 ng·h/mL
Cmax [2, 12]: 75.1 ng/mL
Tmax [2, 12]: 2 h
half-life [2, 12]: 0.416 h
concentration at 0 h [2, 13]: 0 ng/mL
concentration at 1 h [2, 13]: 31.5 ng/mL
concentration at 1.5 h [2, 13]: 58.5 ng/mL
concentration at 2 h [2, 13]: 75.1 ng/mL
concentration at 2.5 h [2, 13]: 36.4 ng/mL
concentration at 3 h [2, 13]: 14.1 ng/mL
concentration at 3.5 h ([2]; human, plasma, po, 80 mg, Subject 201, 80 mg single oral dose (Example 3 tablets), 3.5 h, read-out: Plasma concentration): 6.1 ng/mL
concentration at 4 h ([2]; human, plasma, po, 80 mg, Subject 201, 80 mg single oral dose (Example 3 tablets), 4.0 h): 2.43 ng/mL
concentration at 4.5 h ([2]; human, plasma, po, 80 mg, Subject 201, 80 mg single oral dose (Example 3 tablets), 4.5 h): 1.19 ng/mL
AUC(0-inf) [2, 14]: 103 ng·h/mL
Cmax [2, 14]: 99.1 ng/mL
Tmax [2, 14]: 1 h
half-life [2, 14]: 0.366 h
concentration at 0 h [2, 15]: 0 ng/mL
concentration at 0.5 h ([2]; human, plasma, po, 80 mg, Subject 202, 80 mg single oral dose (Example 3 tablets), 0.5 h, read-out: Plasma concentration): 4.46 ng/mL
concentration at 1 h [2, 15]: 99.1 ng/mL
concentration at 1.5 h [2, 15]: 66.7 ng/mL
concentration at 2 h [2, 15]: 24.5 ng/mL
concentration at 2.5 h [2, 15]: 12.5 ng/mL
concentration at 3 h [2, 15]: 3.41 ng/mL
concentration at 3.5 h ([2]; human, plasma, po, 80 mg, Subject 202, 80 mg single oral dose (Example 3 tablets), 3.5 h, read-out: Plasma concentration): 1.61 ng/mL
Tmax ([2]; human, plasma, po, 80 mg, individual subjects who received an 80 mg oral dose (three values), post-dose): 1.5 h
Cmax increase versus the 60 mg dose ([2]; mean 80 mg oral dose): 3.5 fold
Time at which concentrations were below the level of quantitation ([2]; mean 80 mg oral dose): 4.0 h
Apparent oral bioavailability ([2]; oral formulation of Example 3): acceptable for therapeutic treatment
